# From US12692274B2, “Tetrahydroisoquinoline derivatives for the treatment of red blood disorders and inflammatory diseases” (Sanofi, priority 2020, dated 2026)
# Where “and” joins values, the source holds several entries; their conditions need not be identical. Equal entries are not always repeated.
# Columns and labels:
# [1] = test system: NQO1 activation in BEAS-2B cells; test: BEAS-2B cellular MTT assay of NQO1 activation, 0% HSA; type: cell-based
# Procedure, shortened: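 BEAS-2B cells grown in BEBM with BEGM SingleQuots (no GA-1000), kept below 70% confluence, seeded on collagen plates at a density giving 95-100% confluence after 48 h. Plates seeded in medium without HSA (0% HSA condition).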
# [2] = test system: NQO1 activation in BEAS-2B cells; test: BEAS-2B cellular MTT assay of NQO1 activation, 0.3% HSA; type: cell-based
# Procedure, shortened: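 BEAS-2B cells (<70% confluent in culture, BEBM/SingleQuots without GA-1000) seeded in collagen plates with 0.3% or 0% HSA, reaching 95-100% confluency after 48 h at 37 °C, 5% CO2; MTT read-out.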
# [3] = target: HIS-Keap1 full length / Biotin-Nrf2 (16-mer) (Homo sapiens, UniProt Q14145); test: biochemical
# [4] = Homo sapiens, Serum Free W, read-out: BEAS EC50 (nM) Serum Free W
# [5] = Serum Free W, read-out: BEAS EC50 (nM) Serum Free W
# [6] = BEAS+ W, read-out: BEAS+ W EC50
# [7] = Homo sapiens, BEAS+ W, read-out: BEAS+ W EC50
# [8] = Homo sapiens, serum free, read-out: BEAS EC50 (nM) serum free
# [9] = Homo sapiens, BEAS+, read-out: BEAS+ EC50
# [10] = serum free, read-out: BEAS EC50 (nM) serum free
# Sequence of HIS-Keap1 full length / Biotin-Nrf2 (16-mer) (Q14145 whole entry): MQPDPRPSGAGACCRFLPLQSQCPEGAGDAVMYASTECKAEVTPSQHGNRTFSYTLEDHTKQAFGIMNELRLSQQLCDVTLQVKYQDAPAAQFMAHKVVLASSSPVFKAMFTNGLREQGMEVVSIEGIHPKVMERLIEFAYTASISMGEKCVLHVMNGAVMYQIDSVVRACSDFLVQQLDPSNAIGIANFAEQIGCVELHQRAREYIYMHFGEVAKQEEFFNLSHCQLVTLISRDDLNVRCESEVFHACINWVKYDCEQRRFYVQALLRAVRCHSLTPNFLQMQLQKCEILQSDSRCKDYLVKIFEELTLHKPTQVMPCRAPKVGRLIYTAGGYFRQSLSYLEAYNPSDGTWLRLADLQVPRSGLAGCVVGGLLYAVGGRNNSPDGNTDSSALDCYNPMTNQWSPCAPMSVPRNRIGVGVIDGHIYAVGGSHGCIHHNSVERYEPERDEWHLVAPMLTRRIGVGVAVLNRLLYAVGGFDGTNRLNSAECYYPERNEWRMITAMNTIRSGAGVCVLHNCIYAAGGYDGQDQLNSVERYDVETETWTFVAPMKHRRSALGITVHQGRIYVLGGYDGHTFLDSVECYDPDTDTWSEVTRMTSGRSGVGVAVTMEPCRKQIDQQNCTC
SMILES,"EC50 [1, 4]","EC50 [1, 5]","EC50 [2, 6]","EC50 [2, 7]",IC50 [3],"EC50 [1, 8]","EC50 [2, 9]","EC50 [1, 10]","EC50 ([2]; BEAS+, read-out: BEAS+ EC50)"
Cc1c2ccc3c1nnn3CCCCCCc1ccc(c3ncccc13)C(=O)N1CCc3ccc(cc3C1)[C@@H]2CC(=O)O [Compound 50],57.3 nM,47.6 nM,138 nM,89.7 nM,0.2 nM and 0.3 nM,,,,
O=C(O)CC1c2ccc3c(c2)CN(CC3)C(=O)c2ccc(cc2)CCCCCCn2nnc3cc1ccc32 (stereo not drawn) [Compound 280],,,,,2.3 nM (2×) and 2.8 nM (2×),108 nM,114 nM,,
Cc1c2cnc3c1nnn3CCCC/C=C/Cc1ccc(cc1)C(=O)N1CCc3ccc(cc3C1)[C@H]2CC(=O)O [Compound 352],21.9 nM,33 nM,481 nM,417 nM,6.8 nM and 7.7 nM,,,,
C[C@@H](C(=O)O)[C@H]1c2ccc3c(c2)CN(CC3)C(=O)c2ccc(cc2)OCCCCCCn2nnc3cc1ccc32 [Compound 324],,,,,0.4 nM,6 nM,18.1 nM,,
Cc1c2ccc3c1nnn3CCCCCOc1ccc(c(F)c1)C(=O)N1CCc3ccc(cc3C1)C2CC(=O)O (stereo not drawn) [Compound 316],,,,,1.6 nM and 0.9 nM,141 nM,77.9 nM,,
Cc1c2ccc3c1nnn3CCCCCn1cc(c3ccccc31)C(=O)N1CCc3ccc(cc3C1)C2CC(=O)O (stereo not drawn) [Compound 372],,,,,0.2 nM,994 nM,1630 nM,1020 nM,861 nM
Cc1cc2ncc1C(CC(=O)O)c1ccc3c(c1)CN(CC3)C(=O)c1c(F)cc(cc1F)CCCCCO2 (stereo not drawn) [Compound 161],,,,,2.5 nM and 2.3 nM and 1 nM (2×),1.4 nM,7.8 nM,0.7 nM and 1.1 nM,6 nM and 7.5 nM and 5.2 nM
Cc1cc2ncc1[C@H]([C@@H](C)C(=O)O)c1ccc3c(c1)CN(CC3)C(=O)c1ccc(cc1)CCCCCO2 [Compound 75],9.1 nM,16 nM,60 nM,45.2 nM,21.7 nM and 22.7 nM,,,,
COc1cc2ccc1CCCCCCn1nnc3c(C)c(ccc31)[C@@H](CC(=O)O)c1ccc3c(c1)CN(CC3)C2=O [Compound 101],4.7 nM,5.1 nM,31 nM,34.9 nM,2.6 nM and 2.8 nM,,,,
"Cc1c2ccc3c1nnn3CCCCCCOc1cnc(cn1)C(=O)N1CCc3ccc(cc3C1)C2CC(=O)O (stereo not drawn) [Compound 379, 2-(34-methyl-22-oxo-17-oxa-8,9,10,19,23,32-hexazahexacyclo[21.5.3.218,21.13,7.06,10.026,30]tetratriaconta-1(29),3,5,7(34),8,18,20,26(30),27,32-decaen-2-yl)acetic Acid]",,,,,5.2 nM and 5.4 nM,158 nM,206 nM,147 nM,193 nM
Cc1c2n(C)c3ccc(cc13)C/C=C\CCCn1nnc3c(C)c(cnc31)[C@@H](CC(=O)O)c1ccc3c(c1)CN(CC3)C2=O [Compound 65],3.7 nM,2.7 nM,23.9 nM,18.4 nM,1.5 nM and 1.6 nM,,,,
Cc1cc2ccc1C(=O)N1CCc3ccc(cc3C1)C(CC(=O)O)c1ccc3c(c1)nnn3CCCCCCO2 (stereo not drawn) [Compound 332],,,,,< 0.1 nM,27.4 nM,62.7 nM,,
Cc1cc2ccc1C(=O)N1CCc3ccc(cc3C1)C(CC(=O)O)c1cnc3c(nnn3CCCCCC2)c1C (stereo not drawn) [Compound 170],,,,,6.3 nM and 6.5 nM,28.3 nM,50.1 nM,20.4 nM,54.3 nM
Cc1c2ccc3c1nnn3CCCCCOc1ccc3ccc(cc3c1)C(=O)N1CCc3ccc(cc3C1)C2CC(=O)O (stereo not drawn) [Compound 388],,,,,1.6 nM,51.4 nM,464 nM,44.2 nM,876 nM
Cc1c2ccc3c1nnn3CCCCOCc1ccc(c(F)c1)C(=O)N1CCc3ccc(cc3C1)C2CC(=O)O (stereo not drawn) [Compound 387],,,,,1.5 nM and 1.7 nM,95.9 nM,62.6 nM,75.2 nM,90.3 nM
Cc1c2n(C)c3ccc(cc13)C/C=C\CCCn1nnc3c(C)c(cnc31)[C@H](CC(=O)O)c1ccc3c(c1)CN(CC3)C2=O [Compound 43],4.4 nM,4.3 nM and 3.7 nM,43.5 nM and 37 nM,42.9 nM,0.2 nM,,,,
